Laboratory results published in the CheMixHub viscosity set.

Experiment: xn = mol fraction of the nth substance listed

CC(=O)CC(C)C + CCCCCCCO
viscosity [mPa·s], 100 kPa
Conditions | x1 = 0.0823 | x1 = 0.1682 | x1 = 0.2346 | x1 = 0.3569 | x1 = 0.4379 | x1 = 0.5614 | x1 = 0.6493 | x1 = 0.7489 | x1 = 0.8505 | x1 = 0.9471
293.15 K | 5.46 | 4.21 | 3.56 | 2.62 | 2.19 | 1.66 | 1.37 | 1.1 | 0.86 | 0.68
303.15 K | 4.09 | 3.24 | 2.78 | 2.08 | 1.76 | 1.35 | 1.13 | 0.91 | 0.72 | 0.59
313.15 K | 3.09 | 2.53 | 2.2 | 1.71 | 1.45 | 1.14 | 0.96 | 0.79 | 0.63 | 0.52
323.15 K | 2.37 | 1.98 | 1.76 | 1.4 | 1.22 | 0.98 | 0.83 | 0.68 | 0.56 | 0.47

CC(C)CC(C)(C)C + CCCCCCCCCC
298.15 K, 101 kPa
Conditions | viscosity [mPa·s]
x1 = 0.08287 | 0.7981
x1 = 0.2249 | 0.7573
x1 = 0.3493 | 0.7059
x1 = 0.4309 | 0.6689
x1 = 0.5526 | 0.6214
x1 = 0.6412 | 0.5981
x1 = 0.735 | 0.5645
x1 = 0.8255 | 0.5303
x1 = 0.8936 | 0.512
x1 = 0.9357 | 0.4966

CC(=O)CC(C)C + CC(C)CO
viscosity [mPa·s], 101 kPa
Conditions | 298.15 K | 303.15 K | 308.15 K
x2 = 0.3997 | – | 0.703 | 0.656
x2 = 0.4937 | 0.851 | 0.786 | 0.73

CC(C)CC(C)(C)C + CCCCCCCCCCCC
viscosity [mPa·s]
Conditions | 298.15 K | 323.14 K
100 kPa, x1 = 0.5 | 0.8601 | 0.6179
101 kPa, x1 = 0.0923 | 1.236 | –
101 kPa, x1 = 0.1569 | 1.169 | –
101 kPa, x1 = 0.2503 | 1.085 | –
101 kPa, x1 = 0.3747 | 0.9632 | –
101 kPa, x1 = 0.4786 | 0.8653 | –
101 kPa, x1 = 0.5889 | 0.7696 | –
101 kPa, x1 = 0.6762 | 0.7013 | –
101 kPa, x1 = 0.7597 | 0.6346 | –
101 kPa, x1 = 0.8459 | 0.5724 | –
101 kPa, x1 = 0.9062 | 0.5377 | –
101 kPa, x1 = 0.9457 | 0.5099 | –
101 kPa, x1 = 0.9733 | 0.4948 | –

O=C1CCCCC1 + COc1ccccc1
viscosity [mPa·s], 101.33 kPa
Conditions | x1 = 0.1002 | x1 = 0.2031 | x1 = 0.303 | x1 = 0.402 | x1 = 0.5032 | x1 = 0.6017 | x1 = 0.7 | x1 = 0.7976 | x1 = 0.8978
298.15 K | 1.048 | 1.096 | 1.131 | 1.194 | 1.245 | 1.331 | 1.44 | 1.558 | 1.732
303.15 K | 0.968 | 1.004 | 1.044 | 1.092 | 1.151 | 1.22 | 1.304 | 1.421 | 1.578
308.15 K | 0.905 | 0.93 | 0.966 | 1.012 | 1.06 | 1.127 | 1.207 | 1.306 | 1.444

CC(=O)CC(C)C + CCCCN(CCCC)CCCC
viscosity [mPa·s], 101 kPa
Conditions | 298.15 K | 303.15 K | 308.15 K
x2 = 0.0501 | 0.564 | 0.53 | 0.499
x2 = 0.1 | 0.593 | 0.556 | 0.524
x2 = 0.1499 | 0.622 | 0.582 | 0.549
x2 = 0.2004 | 0.653 | 0.609 | 0.576
x2 = 0.25 | 0.685 | 0.638 | 0.601
x2 = 0.3017 | 0.719 | 0.668 | 0.628
x2 = 0.4004 | 0.786 | 0.727 | 0.681
x2 = 0.4999 | 0.856 | 0.788 | 0.737
x2 = 0.6004 | 0.928 | 0.855 | 0.796
x2 = 0.6962 | 1.002 | 0.922 | 0.855
x2 = 0.8004 | 1.087 | 0.998 | 0.922
x2 = 0.8496 | 1.129 | 1.033 | 0.954
x2 = 0.8997 | 1.171 | 1.07 | 0.988
x2 = 0.9499 | 1.22 | 1.114 | 1.023

CCC(C)N (centres undefined) + CCOCCO
308.15 K, 101 kPa
Conditions | viscosity [mPa·s]
x2 = 0.1045 | 0.5211
x2 = 0.208 | 0.6419
x2 = 0.3105 | 0.7668
x2 = 0.412 | 0.8957
x2 = 0.5124 | 1.016
x2 = 0.6188 | 1.13
x2 = 0.7103 | 1.217
x2 = 0.8078 | 1.304
x2 = 0.9043 | 1.385

O=C1CCCCC1 + CCCCCCCCCCCC
viscosity [mPa·s], 101.33 kPa
Conditions | x1 = 0.1085 | x1 = 0.1979 | x1 = 0.3049 | x1 = 0.4052 | x1 = 0.5049 | x1 = 0.6012 | x1 = 0.7012 | x1 = 0.8014 | x1 = 0.9008
298.15 K | 1.348 | 1.352 | 1.368 | 1.393 | 1.42 | 1.474 | 1.533 | 1.614 | 1.75
303.15 K | 1.237 | 1.238 | 1.252 | 1.272 | 1.302 | 1.344 | 1.398 | 1.469 | 1.623
308.15 K | 1.135 | 1.139 | 1.151 | 1.171 | 1.199 | 1.232 | 1.281 | 1.349 | 1.483
